# “Also recorded” adds a separate entry of the source.
# Tested on: HeLa cells
# Assay: Inhibition of rMcep1-coated fluorescent latex microsphere uptake
# Type: cell-based
compound,measurement,setting,value
"CN(C)c1cccc2c(S(=O)(=O)NCCCCCN)cccc12 [MDC, Monodansylcadaverine]",inhibition of association/uptake of rMcep1-coated fluorescent beads,"MDC 1-100 mm, 3 h preincubation at 37° C., FIG. 5F",partly inhibited the association
same,inhibition of association/uptake of rMcep1-coated fluorescent beads,"MDC 1-100 mm, 3 h preincubation at 37° C., FIG. 5F, listed as Monodansylcadaverine (MDC)",partly inhibited the bead uptake
C=C1[C@@H](C)[C@H]2[C@H](Cc3ccccc3)NC(=O)[C@]23[C@H](OC(C)=O)/C=C/[C@@](C)(O)C(=O)[C@@H](C)C/C=C/[C@H]3[C@@H]1O [Cytochalasin D],inhibition of association/uptake of rMcep1-coated fluorescent beads,"cytochalasin D 0.1-5 mg/ml, 1 h preincubation at 37° C., FIG. 5D",blocked the association of the protein-coated beads in a dose-dependent manner
same,inhibition of association/uptake of rMcep1-coated fluorescent beads,"cytochalasin D 0.1-5 mg/ml, 1 h preincubation at 37° C., FIG. 5D, listed as cytochalasin D","blocked uptake of the fluorescent beads, but the inhibition was not complete"
COC(=O)Nc1nc2ccc(C(=O)c3cccs3)cc2[nH]1 [Nocodazole],inhibition of association/uptake of rMcep1-coated fluorescent beads,"nocodazole up to 5 mg/ml, 1 hr preincubation at 4° C. then 5 hrs at 37° C., FIG. 5E",inhibited the association of the beads in a dose dependent fashion; also recorded: had a similar inhibitory effect at noncytotoxic concentrations
